Reference: PMC2922070 (Journal of peptide science : an official publication of the …, 2009)

Tests used:
Type in all cases: biochemical
[1] = biological target: PKCδ (Homo sapiens, UniProt Q05655); assay: Radiometric kinase activity; details: ± S.D. between two samples, SD
[2] = biological target: PKBβ (Homo sapiens, UniProt P31751); assay: Radiometric kinase activity; details: SD; for Percentage kinase activity, PKBβ: peptide 300 μM, ± S.D. between two samples
[3] = biological target: SAPK2a (p38α) (Homo sapiens, UniProt Q16539); assay: Radiometric kinase activity; details: ± S.D. between two samples, SD
Sequence of SAPK2a (p38α) (Q16539 whole entry): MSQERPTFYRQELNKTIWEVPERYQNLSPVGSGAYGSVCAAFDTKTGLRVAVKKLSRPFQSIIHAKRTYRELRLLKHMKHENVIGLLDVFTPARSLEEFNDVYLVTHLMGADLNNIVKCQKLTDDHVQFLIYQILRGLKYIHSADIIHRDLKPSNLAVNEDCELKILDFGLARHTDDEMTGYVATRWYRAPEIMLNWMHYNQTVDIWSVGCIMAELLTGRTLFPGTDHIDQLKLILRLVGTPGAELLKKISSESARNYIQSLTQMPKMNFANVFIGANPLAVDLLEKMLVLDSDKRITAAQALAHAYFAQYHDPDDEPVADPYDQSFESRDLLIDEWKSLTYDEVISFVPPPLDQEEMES

[4] = biological target: CaMKI (Homo sapiens, UniProt Q14012); assay: Radiometric kinase activity; details: ± S.D. between two samples, SD
Sequence of CaMKI (Q14012 whole entry): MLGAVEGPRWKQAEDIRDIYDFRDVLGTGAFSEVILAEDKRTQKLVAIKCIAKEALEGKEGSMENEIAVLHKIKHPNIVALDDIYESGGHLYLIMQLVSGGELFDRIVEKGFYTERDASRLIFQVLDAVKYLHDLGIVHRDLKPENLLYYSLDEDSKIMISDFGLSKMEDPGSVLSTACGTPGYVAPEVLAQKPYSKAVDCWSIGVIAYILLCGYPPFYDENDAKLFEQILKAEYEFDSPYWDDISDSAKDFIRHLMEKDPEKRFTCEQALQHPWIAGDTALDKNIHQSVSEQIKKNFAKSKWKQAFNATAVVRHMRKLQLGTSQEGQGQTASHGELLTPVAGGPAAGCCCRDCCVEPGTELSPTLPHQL

[5] = biological target: T1, MK2 (Homo sapiens, UniProt P49137); assay: Radiometric kinase activity; details: ± S.D. between two samples, SD
T1 sequence (P49137 whole entry): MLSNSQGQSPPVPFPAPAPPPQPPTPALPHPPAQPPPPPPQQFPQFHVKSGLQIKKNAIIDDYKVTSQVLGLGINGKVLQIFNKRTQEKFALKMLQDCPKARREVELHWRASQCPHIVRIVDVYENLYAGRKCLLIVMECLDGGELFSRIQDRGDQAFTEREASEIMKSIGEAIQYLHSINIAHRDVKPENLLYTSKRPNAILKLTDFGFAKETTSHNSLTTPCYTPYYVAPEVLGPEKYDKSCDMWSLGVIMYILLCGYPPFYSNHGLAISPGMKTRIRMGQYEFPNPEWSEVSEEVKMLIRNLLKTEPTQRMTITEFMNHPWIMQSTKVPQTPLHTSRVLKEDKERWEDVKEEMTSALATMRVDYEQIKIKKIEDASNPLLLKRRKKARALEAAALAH

[6] = biological target: T2, IRAK4 (Homo sapiens, UniProt Q9NWZ3); assay: Radiometric kinase activity; details: ± S.D. between two samples, SD
T2 sequence (Q9NWZ3 1-460): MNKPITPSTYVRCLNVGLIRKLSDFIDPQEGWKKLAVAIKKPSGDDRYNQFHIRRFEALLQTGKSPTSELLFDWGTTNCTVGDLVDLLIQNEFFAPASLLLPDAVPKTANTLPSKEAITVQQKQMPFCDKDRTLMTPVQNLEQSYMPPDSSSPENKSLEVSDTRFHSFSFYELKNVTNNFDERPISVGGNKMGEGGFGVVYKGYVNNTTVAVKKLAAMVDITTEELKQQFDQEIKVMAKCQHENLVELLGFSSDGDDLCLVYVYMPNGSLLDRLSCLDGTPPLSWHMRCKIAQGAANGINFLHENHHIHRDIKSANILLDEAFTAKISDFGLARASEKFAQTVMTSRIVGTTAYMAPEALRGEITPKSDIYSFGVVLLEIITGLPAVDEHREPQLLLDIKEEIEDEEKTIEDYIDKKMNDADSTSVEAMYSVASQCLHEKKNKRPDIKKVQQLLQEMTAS

[7] = biological target: T1, MK2; assay: Radiometric IC50 determination
[8] = biological target: T3, MK5 (Homo sapiens, UniProt Q8IW41); assay: Radiometric kinase activity; details: ± S.D. between two samples, SD
T3 sequence (Q8IW41 1-473): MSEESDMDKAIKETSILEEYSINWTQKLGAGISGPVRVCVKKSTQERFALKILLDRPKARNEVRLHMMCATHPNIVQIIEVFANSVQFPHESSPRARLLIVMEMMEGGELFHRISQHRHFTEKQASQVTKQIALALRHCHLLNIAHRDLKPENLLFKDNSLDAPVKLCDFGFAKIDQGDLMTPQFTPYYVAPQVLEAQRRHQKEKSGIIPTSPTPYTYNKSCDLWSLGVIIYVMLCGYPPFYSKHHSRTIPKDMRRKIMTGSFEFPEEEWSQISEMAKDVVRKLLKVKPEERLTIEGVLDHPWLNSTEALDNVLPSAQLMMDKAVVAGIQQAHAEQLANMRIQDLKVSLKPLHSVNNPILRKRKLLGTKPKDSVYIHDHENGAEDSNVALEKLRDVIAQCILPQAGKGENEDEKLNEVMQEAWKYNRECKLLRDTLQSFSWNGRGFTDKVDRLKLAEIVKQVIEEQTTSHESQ

[9] = biological target: ROCK-I (Homo sapiens, UniProt Q13464); assay: Radiometric kinase activity; details: ± S.D. between two samples, SD
Sequence of ROCK-I (Q13464 whole entry): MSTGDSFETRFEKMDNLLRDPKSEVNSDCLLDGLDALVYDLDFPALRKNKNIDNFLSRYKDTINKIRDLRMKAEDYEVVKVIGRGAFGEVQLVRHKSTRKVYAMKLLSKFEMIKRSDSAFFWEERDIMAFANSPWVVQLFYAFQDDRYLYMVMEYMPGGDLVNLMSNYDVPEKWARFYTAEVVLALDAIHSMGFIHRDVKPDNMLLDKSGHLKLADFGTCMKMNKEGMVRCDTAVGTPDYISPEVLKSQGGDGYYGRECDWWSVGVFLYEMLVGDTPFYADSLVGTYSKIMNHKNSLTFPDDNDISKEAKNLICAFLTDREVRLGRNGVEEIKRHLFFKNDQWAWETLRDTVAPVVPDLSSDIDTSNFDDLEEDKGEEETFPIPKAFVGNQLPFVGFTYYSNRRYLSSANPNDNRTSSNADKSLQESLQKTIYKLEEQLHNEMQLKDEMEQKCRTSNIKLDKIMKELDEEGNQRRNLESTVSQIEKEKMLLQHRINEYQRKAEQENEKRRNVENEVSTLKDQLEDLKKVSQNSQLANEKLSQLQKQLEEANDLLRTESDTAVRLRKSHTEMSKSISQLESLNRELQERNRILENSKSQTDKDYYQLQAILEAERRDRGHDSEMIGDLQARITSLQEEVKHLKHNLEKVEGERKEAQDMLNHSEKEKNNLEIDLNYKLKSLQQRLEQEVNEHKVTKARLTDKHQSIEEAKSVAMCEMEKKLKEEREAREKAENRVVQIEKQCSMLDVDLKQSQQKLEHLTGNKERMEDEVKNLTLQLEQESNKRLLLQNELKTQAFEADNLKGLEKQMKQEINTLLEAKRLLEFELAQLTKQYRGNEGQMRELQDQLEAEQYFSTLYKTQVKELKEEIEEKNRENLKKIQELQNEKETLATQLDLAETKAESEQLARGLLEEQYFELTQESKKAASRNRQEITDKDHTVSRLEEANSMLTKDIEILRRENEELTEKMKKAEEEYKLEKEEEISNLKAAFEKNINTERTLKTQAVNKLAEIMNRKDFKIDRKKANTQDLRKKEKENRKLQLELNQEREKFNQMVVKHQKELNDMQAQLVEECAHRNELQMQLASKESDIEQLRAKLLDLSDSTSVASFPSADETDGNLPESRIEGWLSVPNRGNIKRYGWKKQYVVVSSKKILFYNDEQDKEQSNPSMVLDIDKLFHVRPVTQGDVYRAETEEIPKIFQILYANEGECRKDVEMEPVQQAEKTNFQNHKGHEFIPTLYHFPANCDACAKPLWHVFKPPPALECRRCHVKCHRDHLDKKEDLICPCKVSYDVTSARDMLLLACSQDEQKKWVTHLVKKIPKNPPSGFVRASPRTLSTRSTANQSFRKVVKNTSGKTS

[10] = biological target: MK3 (Homo sapiens, UniProt Q16644); assay: Radiometric kinase activity; details: ± S.D. between two samples, SD
Sequence of MK3 (Q16644 whole entry): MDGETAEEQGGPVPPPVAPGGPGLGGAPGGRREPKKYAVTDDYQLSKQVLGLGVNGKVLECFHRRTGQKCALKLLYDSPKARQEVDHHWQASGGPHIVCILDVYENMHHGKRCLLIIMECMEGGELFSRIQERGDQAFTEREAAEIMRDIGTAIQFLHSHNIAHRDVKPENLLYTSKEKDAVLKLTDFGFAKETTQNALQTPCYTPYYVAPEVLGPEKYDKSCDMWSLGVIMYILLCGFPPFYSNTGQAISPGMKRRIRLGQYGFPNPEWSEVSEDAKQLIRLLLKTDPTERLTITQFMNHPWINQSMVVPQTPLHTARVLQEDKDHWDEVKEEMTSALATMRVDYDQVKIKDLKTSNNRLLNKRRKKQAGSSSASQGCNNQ

[11] = biological target: MLCK (Homo sapiens, UniProt Q9H1R3); assay: Radiometric kinase activity; details: ± S.D. between two samples, SD
Sequence of MLCK (Q9H1R3 2-596): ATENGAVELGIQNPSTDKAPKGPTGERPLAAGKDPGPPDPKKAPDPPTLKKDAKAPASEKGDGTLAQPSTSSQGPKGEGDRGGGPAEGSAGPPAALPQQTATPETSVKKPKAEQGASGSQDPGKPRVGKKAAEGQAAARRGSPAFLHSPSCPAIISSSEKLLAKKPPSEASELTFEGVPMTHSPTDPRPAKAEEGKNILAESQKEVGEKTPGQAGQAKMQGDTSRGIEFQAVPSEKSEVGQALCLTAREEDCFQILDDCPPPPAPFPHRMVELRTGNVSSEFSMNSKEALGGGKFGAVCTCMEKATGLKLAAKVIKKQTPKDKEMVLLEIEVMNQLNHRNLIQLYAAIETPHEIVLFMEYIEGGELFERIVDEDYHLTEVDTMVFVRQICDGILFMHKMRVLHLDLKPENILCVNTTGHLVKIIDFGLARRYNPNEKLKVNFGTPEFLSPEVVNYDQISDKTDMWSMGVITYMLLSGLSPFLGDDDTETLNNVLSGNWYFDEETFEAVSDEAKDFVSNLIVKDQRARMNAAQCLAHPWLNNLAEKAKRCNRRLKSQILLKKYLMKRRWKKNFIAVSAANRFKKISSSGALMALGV

[12] = biological target: T1, MK2; assay: Fluorescence-based kinase activity assay
[13] = read-out: Percentage kinase activity, PKBβ

Sequence of PKBβ (P31751 whole entry): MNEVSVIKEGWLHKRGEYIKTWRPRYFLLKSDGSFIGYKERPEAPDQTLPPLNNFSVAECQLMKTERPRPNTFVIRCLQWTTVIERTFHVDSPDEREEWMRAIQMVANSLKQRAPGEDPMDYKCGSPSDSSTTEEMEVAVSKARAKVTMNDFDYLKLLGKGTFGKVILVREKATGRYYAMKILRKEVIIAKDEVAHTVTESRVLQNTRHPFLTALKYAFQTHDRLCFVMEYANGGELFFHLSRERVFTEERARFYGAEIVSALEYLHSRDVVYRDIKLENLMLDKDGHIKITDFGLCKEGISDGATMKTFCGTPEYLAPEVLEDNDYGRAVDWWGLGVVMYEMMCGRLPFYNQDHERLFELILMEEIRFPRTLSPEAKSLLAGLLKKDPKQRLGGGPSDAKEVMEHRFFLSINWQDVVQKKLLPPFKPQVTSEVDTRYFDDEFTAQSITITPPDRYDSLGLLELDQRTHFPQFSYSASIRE
Sequence of PKCδ (Q05655 whole entry): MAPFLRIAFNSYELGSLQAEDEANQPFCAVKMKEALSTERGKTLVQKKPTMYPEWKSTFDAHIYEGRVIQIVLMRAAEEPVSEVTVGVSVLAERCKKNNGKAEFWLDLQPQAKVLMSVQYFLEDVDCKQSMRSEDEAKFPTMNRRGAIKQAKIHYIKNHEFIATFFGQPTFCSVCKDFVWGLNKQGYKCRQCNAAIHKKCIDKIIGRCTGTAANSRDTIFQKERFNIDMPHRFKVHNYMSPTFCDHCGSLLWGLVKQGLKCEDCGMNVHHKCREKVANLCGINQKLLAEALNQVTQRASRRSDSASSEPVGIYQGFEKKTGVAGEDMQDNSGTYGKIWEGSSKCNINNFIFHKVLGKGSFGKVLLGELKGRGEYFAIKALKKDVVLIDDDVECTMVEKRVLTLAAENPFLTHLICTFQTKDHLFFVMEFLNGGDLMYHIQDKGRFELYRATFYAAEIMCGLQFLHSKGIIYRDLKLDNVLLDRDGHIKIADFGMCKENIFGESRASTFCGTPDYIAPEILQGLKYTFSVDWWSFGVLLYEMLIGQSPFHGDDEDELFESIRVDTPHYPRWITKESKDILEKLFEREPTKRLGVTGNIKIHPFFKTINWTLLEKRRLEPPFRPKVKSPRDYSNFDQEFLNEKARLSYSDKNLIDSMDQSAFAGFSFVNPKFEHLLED

Molecule	Percentage kinase activity, PKCδ ([1]; peptide 100 μM) [%]	activity at 100 µM [2, 13] [%]	Percentage kinase activity, SAPK2a (p38α) ([3]; peptide 100 μM) [%]	Percentage kinase activity, CaMKI ([4]; peptide 100 μM) [%]	Percentage kinase activity, MK2 ([5]; peptide 100 μM) [%]	Percentage kinase activity, IRAK4 ([6]; peptide 100 μM) [%]	IC50 [7] [nM]	Percentage kinase activity, MK5 ([8]; peptide 100 μM) [%]	Percentage kinase activity, ROCK-I ([9]; peptide 100 μM) [%]	Percentage kinase activity, MK3 ([10]; peptide 100 μM) [%]	Percentage kinase activity, MLCK ([11]; peptide 100 μM) [%]	Percentage kinase activity, PKBβ [2] [%]	Percentage kinase activity, MK2 ([5]; peptide 300 μM) [%]	Percentage kinase activity, MK5 ([8]; peptide 300 μM) [%]	Percentage kinase activity, MK3 ([10]; peptide 300 μM) [%]	other results
CC(C)C[C@H](NC(=O)[C@H](C)NC(=O)[C@H](CCCCN)NC(=O)[C@H](CCCNC(=N)N)NC(=O)[C@H](Cc1ccc(O)cc1)NC(=O)[C@H](CC(C)C)NC(=O)[C@H](CCCNC(=N)N)NC(=O)[C@H](C)NC(=O)[C@H](C)NC(=O)[C@H](CC(C)C)NC(=O)[C@H](CCCCN)NC(=O)[C@H](C)NC(=O)[C@H](Cc1ccccc1)NC(=O)[C@H](C)NC(=O)[C@@H](N)CCCCN)C(=O)N[C@@H](C)C(=O)N[C@@H](CCCNC(=N)N)C(=O)N[C@@H](CCC(N)=O)C(=O)N[C@@H](CC(C)C)C(=O)NCC(=O)N[C@H](C(=O)N[C@@H](C)C(=O)N[C@@H](C)C(N)=O)C(C)C	24 ± 3	28 ± 4	59 ± 8	0 ± 2	8 ± 1	16 ± 2	4400	148 ± 4	29 ± 0	17 ± 1	2 ± 0					
CC(C)C[C@H](NC(=O)[C@H](C)NC(=O)[C@H](CCCCN)NC(=O)[C@H](CCCNC(=N)N)NC(=O)[C@H](Cc1ccc(O)cc1)NC(=O)[C@H](CC(C)C)NC(=O)[C@H](CCCNC(=N)N)NC(=O)[C@H](C)NC(=O)[C@H](C)NC(=O)[C@H](CC(C)C)NC(=O)[C@H](CCCCN)NC(=O)[C@H](C)NC(=O)[C@@H](N)Cc1ccccc1)C(=O)N[C@@H](C)C(=O)N[C@@H](CCCNC(=N)N)C(=O)N[C@@H](CCC(N)=O)C(=O)N[C@@H](CC(C)C)C(=O)NCC(=O)N[C@H](C(=O)N[C@@H](C)C(=O)N[C@@H](C)C(N)=O)C(C)C	40 ± 2	16 ± 5	30 ± 6	0 ± 2	5 ± 2	13 ± 4	1800	131 ± 4	25 ± 2	10 ± 1	1 ± 1					
CC[C@H](C)[C@H](NC(=O)[C@H](CCCNC(=N)N)NC(=O)[C@H](CCCNC(=N)N)NC(=O)[C@H](CC(C)C)NC(=O)[C@H](Cc1c[nH]c2ccccc12)NC(=O)[C@H](C)NC(=O)[C@H](CCCCN)NC(=O)[C@@H](NC(=O)[C@H](CCCNC(=N)N)NC(=O)[C@H](CCCNC(=N)N)NC(=O)[C@H](CC(C)C)NC(=O)[C@@H](N)Cc1c[nH]c2ccccc12)[C@@H](C)CC)C(=O)N[C@@H](CCCCN)C(=O)N[C@@H](C)C(=O)N[C@@H](CC(C)C)C(=O)N[C@@H](CC(N)=O)C(=O)N[C@@H](CCCNC(=N)N)C(=O)N[C@@H](CCC(N)=O)C(=O)N[C@@H](CC(C)C)C(=O)NCC(=O)N[C@H](C(=O)N[C@@H](C)C(=O)N[C@@H](C)C(N)=O)C(C)C							740									Percentage kinase activity, PKCδ ([1]; peptide 30 μM): 11 ± 0%; activity at 30 µM [2, 13]: 18 ± 2%; Percentage kinase activity, SAPK2a (p38α) ([3]; peptide 30 μM): 61 ± 7%; Percentage kinase activity, CaMKI ([4]; peptide 30 μM): 9 ± 1%; Percentage kinase activity, MK2 ([5]; peptide 30 μM): 2 ± 1%; Percentage kinase activity, IRAK4 ([6]; peptide 30 μM): 12 ± 1%; Percentage kinase activity, MK5 ([8]; peptide 30 μM): 67 ± 9%; Percentage kinase activity, ROCK-I ([9]; peptide 30 μM): 0 ± 1%; Percentage kinase activity, MK3 ([10]; peptide 30 μM): 16 ± 2%; Percentage kinase activity, MLCK ([11]; peptide 30 μM): 4 ± 1%
YARAAARQARAKALNRQLGVAA												96 ± 1	10 ± 3	81 ± 3	19 ± 3	Percentage kinase activity, PKCδ ([1]; peptide 300 μM): 105 ± 2%; Percentage kinase activity, SAPK2a (p38α) ([3]; peptide 300 μM): 100 ± 6%; Percentage kinase activity, CaMKI ([4]; peptide 300 μM): 8 ± 1%; Percentage kinase activity, IRAK4 ([6]; peptide 300 μM): 68 ± 3%; Percentage kinase activity, ROCK-I ([9]; peptide 300 μM): 95 ± 7%
YGRKKRRQRRR																inhibition of MK2 activity ([12]; peptide 25 μM): 47.7%; inhibition of MK2 activity ([12]; peptide 100 μM): 61.2%
YARAAARQARAKALARQLGVAA												17 ± 2	0 ± 0	86 ± 2	5 ± 1	Percentage kinase activity, MLCK ([11]; peptide 300 μM): 9 ± 0%
